COC(=O)c1cc(OC)c2c(c1-c1c(C(=O)OC)cc(OC)c3c1OCO3)OCO2
solubility (mole fraction)
Conditions | 293.15 K | 303.15 K | 313.15 K | 323.15 K | 333.15 K
in acetone | 0.00457 | 0.0068 | 0.0104 | 0.0174 | –
in acetonitrile | 0.00542 | 0.00808 | 0.0123 | 0.0189 | –
in ethanol | 6.48e-05 | 0.000114 | 0.000277 | 0.000523 | 0.00102
in ethyl acetate | 0.00302 | 0.0044 | 0.00659 | 0.0103 | –
in isopropanol | 6.44e-05 | 0.00011 | 0.000223 | 0.000484 | 0.00107
in methanol | 7.18e-05 | 0.000121 | 0.000275 | 0.000459 | –
in methyl acetate | 0.00549 | 0.00775 | 0.0124 | 0.0193 | –
in n-butanol | 5.71e-05 | 0.000114 | 0.000214 | 0.000511 | 0.00104
in n-butyl acetate | 0.00137 | 0.00199 | 0.00318 | 0.00554 | 0.00831
in n-pentanol | 6.14e-05 | 0.000114 | 0.000199 | 0.000388 | 0.00104
in n-pentyl acetate | 0.0011 | 0.00154 | 0.00244 | 0.00387 | 0.00649
in n-propanol | 5.78e-05 | 0.000104 | 0.000211 | 0.000479 | 0.00107
in n-propyl acetate | 0.00171 | 0.00279 | 0.00423 | 0.00659 | 0.0117
